# Test results reported in US20250230171A1 (MOMA Therapeutics, Inc., priority 2023, published 2025).
# Like-named read-outs stand apart in the source and are kept apart here.
# How the values were obtained:
# [1] = system: DLD1 WT cells; assay: 7-day cell viability assay (CellTiter-Glo), DLD1 parental (WT); type: cell-based, human; settings: 7-day CellTiter-Glo, n=2
# [2] = system: DLD1 BRCA2 (−/−) cells; assay: 7-day cell viability assay (CellTiter-Glo), DLD1 BRCA2 (−/−); type: cell-based, human; settings: 7-day CellTiter-Glo, n=2, read-out: Viability IC50 (uM) DLD1 BRCA2 null
# Summary of the method: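 7-day growth assay in DLD1 cells with or without BRCA2; seeding densities chosen to keep log-linear growth. Compound: 10 uM top, 3-fold, 9 points. Endpoint: CTG ATP luminescence at RT.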
Molecule,"IC50 ([2]; Homo sapiens, DLD-1, 168 h)",IC50 [1],IC50 [2],"IC50 ([1]; Homo sapiens, DLD-1, 168 h)"
"2′-chloro-N-(5-(6-chloro-5-fluoropicolinoyl)-5,6-dihydro-4H-pyrrolo[3,4-d]thiazol-2-yl)-5′-methoxy-6-methyl-[4,4′-bipyridine]-3-carboxamide [Example 388]",–,2 to 5 µM,0.001 to 0.1 µM,–
"2′-chloro-N-(5-(5-chloro-2-methylisonicotinoyl)-5,6-dihydro-4H-pyrrolo[3,4-d]thiazol-2-yl)-5′-methoxy-6-methyl-[4,4′-bipyridine]-3-carboxamide [Example 519]",–,≥ 10 µM,0.001 to 0.1 µM,–
"2′-Chloro-N-(5-(5,6-dimethylpyrazine-2-carbonyl)-5,6-dihydro-4H-pyrrolo[3,4-d]thiazol-2-yl)-5′-methoxy-6-methyl-[4,4′-bipyridine]-3-carboxamide [Example 410]",–,≥ 10 µM,0.001 to 0.1 µM,–
"N-(5-(2-Chloro-3-(difluoromethyl)benzoyl)-5,6-dihydro-4H-pyrrolo[3,4-d]thiazol-2-yl)-4-(5-cyano-2-methoxyphenyl)-6-methylnicotinamide [Example 443]",–,≥ 10 µM,0.001 to 0.1 µM,–
"2′-Chloro-5′-methoxy-6-methyl-N-(5-(6-methyl-5-(trifluoromethoxy)picolinoyl)-5,6-dihydro-4H-pyrrolo[3,4-d]thiazol-2-yl)-[4,4′-bipyridine]-3-carboxamide [Example 555]",–,≥ 10 µM,0.001 to 0.1 µM,–
"2′-Chloro-5′-methoxy-6-methyl-N-(5-(4-methyl-6-(trifluoromethoxy)nicotinoyl)-5,6-dihydro-4H-pyrrolo[3,4-d]thiazol-2-yl)-[4,4′-bipyridine]-3-carboxamide [Example 561]",–,≥ 10 µM,0.001 to 0.1 µM,–
"COc1ccc(C(=O)N2Cc3nc(NC(=O)c4cnc(C)cc4-c4cc(Cl)ncc4OC)sc3C2)c(F)n1 [Example 1038, 2′-chloro-N-(5-(2-fluoro-6-methoxynicotinoyl)-5,6-dihydro-4H-pyrrolo[3,4-d]thiazol-2-yl)-5′-methoxy-6-methyl-[4,4′-bipyridine]-3-carboxamide]",0.1 to 0.25 µM,–,–,≥ 10 µM
"2′-chloro-N-(5-(5-chloropyrimidine-2-carbonyl)-5,6-dihydro-4H-pyrrolo[3,4-d]thiazol-2-yl)-5′-(difluoromethoxy)-6-methyl-[4,4′-bipyridine]-3-carboxamide [Example 648]",–,≥ 10 µM,0.001 to 0.1 µM,–
COc1cnc(Cl)cc1-c1cc(C)ncc1C(=O)Nc1nc2c(s1)CN(C(=O)c1nc(C(F)F)ccc1F)C2,0.001 to 0.1 µM,–,–,≥ 10 µM
"Cc1cc(-c2cc(Cl)ncc2OC(F)F)c(C(=O)Nc2nc3c(s2)CN(C(=O)c2ncc(Cl)cn2)C3)cn1 [Example 910, 2′-chloro-N-(5-(5-chloropyrimidine-2-carbonyl)-5,6-dihydro-4H-pyrrolo[3,4-d]thiazol-2-yl)-5′-(difluoromethoxy)-6-methyl-[4,4′-bipyridine]-3-carboxamide]",0.001 to 0.1 µM,–,–,≥ 10 µM
"COc1cnc(Cl)cc1-c1cc(C)ncc1C(=O)Nc1nc2c(s1)CN(C(=O)c1ccc(OC(F)(F)F)nc1OC)C2 [Example 1039, 2′-chloro-5′-methoxy-N-(5-(2-methoxy-6-(trifluoromethoxy)nicotinoyl)-5,6-dihydro-4H-pyrrolo[3,4-d]thiazol-2-yl)-6-methyl-[4,4′-bipyridine]-3-carboxamide]",0.001 to 0.1 µM,–,–,≥ 10 µM
"COc1cnc(Cl)cc1-c1cc(C)ncc1C(=O)Nc1nc2c(s1)CN(C(=O)[C@H]1CC[C@@H](C(F)F)CC1)C2 [Example 909, 2′-chloro-N-(5-((1s,4s)-4-(difluoromethyl)cyclohexane-1-carbonyl)-5,6-dihydro-4H-pyrrolo[3,4-d]thiazol-2-yl)-5′-methoxy-6-methyl-[4,4′-bipyridine]-3-carboxamide]",0.001 to 0.1 µM,–,–,≥ 10 µM
"COc1cnc(Cl)cc1-c1cc(C)ncc1C(=O)Nc1nc2c(s1)CN(C(=O)c1cc(C)c(C(F)(F)F)nc1OC)C2 [Example 989, 2′-chloro-5′-methoxy-N-(5-(2-methoxy-5-methyl-6-(trifluoromethyl)nicotinoyl)-5,6-dihydro-4H-pyrrolo[3,4-d]thiazol-2-yl)-6-methyl-[4,4′-bipyridine]-3-carboxamide]",0.001 to 0.1 µM,–,–,≥ 10 µM

# The next lines start with results.
"IC50 ([2]; Homo sapiens, DLD-1, 168 h)",Molecule,IC50 [1],IC50 [2],"IC50 ([1]; Homo sapiens, DLD-1, 168 h)"
0.001 to 0.1 µM,COc1cnc(Cl)cc1-c1cc(C)ncc1C(=O)Nc1nc2c(s1)CN(C(=O)c1ccc(C#N)c(C)n1)C2,–,–,≥ 10 µM
0.001 to 0.1 µM,"COc1cnc(Cl)cc1-c1cc(C)ncc1C(=O)Nc1nc2c(s1)CN(C(=O)c1ccc(C(F)(F)F)nc1Cl)C2 [Example 923, 2′-chloro-N-(5-(2-chloro-6-(trifluoromethyl)nicotinoyl)-5,6-dihydro-4H-pyrrolo[3,4-d]thiazol-2-yl)-5′-methoxy-6-methyl-[4,4′-bipyridine]-3-carboxamide]",–,–,≥ 10 µM
0.001 to 0.1 µM,COc1cnc(Cl)cc1-c1cc(C)ncc1C(=O)Nc1nc2c(s1)CN(C(=O)c1cc(Cl)cnc1C)C2,–,–,≥ 10 µM
0.001 to 0.1 µM,COc1cnc(Cl)cc1-c1cc(C)ncc1C(=O)Nc1nc2c(s1)CN(C(=O)c1ncc(C(F)(F)F)c(C)c1C)C2,–,–,≥ 10 µM
0.001 to 0.1 µM,"COc1cnc(Cl)cc1-c1cc(C)ncc1C(=O)Nc1nc2c(s1)CN(C(=O)c1ncc(C)nc1OC)C2 [Example 905, 2′-chloro-5′-methoxy-N-(5-(3-methoxy-5-methylpyrazine-2-carbonyl)-5,6-dihydro-4H-pyrrolo[3,4-d]thiazol-2-yl)-6-methyl-[4,4′-bipyridine]-3-carboxamide]",–,–,≥ 10 µM
0.001 to 0.1 µM,COc1cnc(Cl)cc1-c1cc(C)ncc1C(=O)Nc1nc2c(s1)CN(C(=O)c1nc(OC)c(Cl)cc1C)C2,–,–,5 to 10 µM
0.001 to 0.1 µM,"COc1cnc(Cl)cc1-c1cc(C)ncc1C(=O)Nc1nc2c(s1)CN(C(=O)c1ccc(C(F)(F)F)c(OC)n1)C2 [Example 962, 2′-chloro-5′-methoxy-N-(5-(6-methoxy-5-(trifluoromethyl)picolinoyl)-5,6-dihydro-4H-pyrrolo[3,4-d]thiazol-2-yl)-6-methyl-[4,4′-bipyridine]-3-carboxamide]",–,–,5 to 10 µM
0.001 to 0.1 µM,COc1cnc(Cl)cc1-c1cc(C)ncc1C(=O)Nc1nc2c(s1)CN(C(=O)c1cnc(OC(F)F)cc1Cl)C2,–,–,≥ 10 µM
0.001 to 0.1 µM,"COc1cnc(Cl)cc1-c1cc(C)ncc1C(=O)Nc1nc2c(s1)CN(C(=O)c1cnc(C(F)(F)F)c(OC)n1)C2 [Example 986, 2′-chloro-5′-methoxy-N-(5-(6-methoxy-5-(trifluoromethyl)pyrazine-2-carbonyl)-5,6-dihydro-4H-pyrrolo[3,4-d]thiazol-2-yl)-6-methyl-[4,4′-bipyridine]-3-carboxamide]",–,–,≥ 10 µM
0.001 to 0.1 µM,COc1cnc(Cl)cc1-c1cc(C)ncc1C(=O)Nc1nc2c(s1)CN(C(=O)c1nc(C)c(C(F)F)cc1Cl)C2,–,–,≥ 10 µM
0.001 to 0.1 µM,"COc1cc(C(F)(F)F)ncc1C(=O)N1Cc2nc(NC(=O)c3cnc(C)cc3-c3cc(Cl)ncc3OC)sc2C1 [Example 974, 2′-chloro-5′-methoxy-N-(5-(4-methoxy-6-(trifluoromethyl)nicotinoyl)-5,6-dihydro-4H-pyrrolo[3,4-d]thiazol-2-yl)-6-methyl-[4,4′-bipyridine]-3-carboxamide]",–,–,≥ 10 µM
0.001 to 0.1 µM,"COc1cnc(Cl)cc1-c1cc(C)ncc1C(=O)Nc1nc2c(s1)CN(C(=O)c1nc(C(F)(F)F)ccc1OC)C2 [Example 937, 2′-chloro-5′-methoxy-N-(5-(3-methoxy-6-(trifluoromethyl)picolinoyl)-5,6-dihydro-4H-pyrrolo[3,4-d]thiazol-2-yl)-6-methyl-[4,4′-bipyridine]-3-carboxamide]",–,–,≥ 10 µM
0.001 to 0.1 µM,"COc1cnc(C)c(F)c1-c1cc(C)ncc1C(=O)Nc1nc2c(s1)CN(C(=O)c1ccc(C(F)(F)F)nc1OC)C2 [Example 1029, 3′-fluoro-5′-methoxy-N-(5-(2-methoxy-6-(trifluoromethyl)nicotinoyl)-5,6-dihydro-4H-pyrrolo[3,4-d]thiazol-2-yl)-2′,6-dimethyl-[4,4′-bipyridine]-3-carboxamide]",–,–,≥ 10 µM
0.001 to 0.1 µM,COc1cnc(Cl)cc1-c1cc(C)ncc1C(=O)Nc1nc2c(s1)CN(C(=O)c1ccc(C(C)(F)F)cn1)C2,–,–,≥ 10 µM
0.001 to 0.1 µM,COc1cnc(Cl)cc1-c1cc(C)ncc1C(=O)Nc1nc2c(s1)CN(C(=O)c1nc(OC)c(Cl)nc1C)C2,–,–,≥ 10 µM
0.001 to 0.1 µM,COc1cnc(Cl)cc1-c1cc(C)ncc1C(=O)Nc1nc2c(s1)CN(C(=O)c1cc(C)nc3ccnn13)C2,–,–,≥ 10 µM
0.001 to 0.1 µM,"COc1cnc(Cl)cc1-c1cc(C)ncc1C(=O)Nc1nc2c(s1)CN(C(=O)c1ccc(OC(F)F)nc1OC)C2 [Example 985, 2′-chloro-N-(5-(6-(difluoromethoxy)-2-methoxynicotinoyl)-5,6-dihydro-4H-pyrrolo[3,4-d]thiazol-2-yl)-5′-methoxy-6-methyl-[4,4′-bipyridine]-3-carboxamide]",–,–,≥ 10 µM
0.001 to 0.1 µM,"COc1cnc(Cl)cc1-c1cc(C)ncc1C(=O)Nc1nc2c(s1)CN(C(=O)c1nc(C(F)(F)F)c(C#N)cc1C)C2 [Example 1022, 2′-chloro-N-(5-(5-cyano-3-methyl-6-(trifluoromethyl)picolinoyl)-5,6-dihydro-4H-pyrrolo[3,4-d]thiazol-2-yl)-5′-methoxy-6-methyl-[4,4′-bipyridine]-3-carboxamide]",–,–,≥ 10 µM
0.001 to 0.1 µM,COc1cnc(Cl)cc1-c1cc(C)ncc1C(=O)Nc1nc2c(s1)CN(C(=O)c1nc(C)c(Cl)nc1C)C2 [Example 622],–,–,≥ 10 µM
